The supplement of paper PMC11208160

Experiment: recombinant UMI read abundance after kanamycin selection (control-corrected) (log10(CPM+1)); higher = more efficient recombination; extreme values may be limits of the assay; sequences stand for … in AGTGCAGAGAAAATCGGCCAGTTTTCTCTGCCTGCAGTCCGCATGCCGTGGGACCCCTTGGGTTCTAACCTGTTGCCTAGATTTATGCAGCGGACTGCCTTTCTCCCAAAGTGATAAACCGG…AGGTTGGTTTCACT; site = the 11-nt donor
Protocol: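 Pooled E. coli donor-specificity screen for the IS621 bridge recombinase. Each library member carries a reprogrammed 11-nt donor and a full-length LE bridge RNA expressed in cis from the natural promoter, with a paired donor-binding loop (8-nt LDG + 4-nt RDG) and a target-binding loop fixed to T5. It is co-electroporated with a T5 target plasmid; recombinase is induced with 0.07 mM IPTG and recombinants are selected on kanamycin. UMIs are counted as CPM, averaged over two biological replicates and corrected by the unselected control. Molecule = full bridge RNA written as DNA, built from the T5 scaffold: LDG = donor specificity nt 1-8, RDG = reverse complement of nt 8-11.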
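Further: IS621 bridge recombinase in Escherichia coli cells against a fixed T5 target plasmid.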

| Sequence | recombinant UMI read abundance (log10) |
| --- | --- |
| GTGCAGGCATGGACCGGTTTTCCCGGTAATCCGTATTTGTG (site GTGTAGGCTCA) | 0.475 |
| GATGCAACATGGACCGGTTTTCCCGGTAATCCGTATTTGAT (site GATGCAACTAT) | 0.357 |
| CGTTTCGCATGGACCGGTTTTCCCGGTAATCCGTATTTGCT (site CGTTTGGCTAG) | 0 |
| GCATGCACATGGACCGGTTTTCCCGGTAATCCGTATTTGTA (site GGATGCACTTA) | 0.364 |
| AGGACTACATGGACCGGTTTTCCCGGTAATCCGTATTTGAT (site AGGACTACTCT) | 0.00954 |
| ATGACTACATGGACCGGTTTTCCCGGTAATCCGTATTTGAC (site AGGACTACTGT) | 0.907 |
| CGATCGGCATGGACCGGTTTTCCCGGTAATCCGTATTTGTT (site CGATCGGCTAA) | 0.642 |
| CTACTTACATGGACCGGTTTTCCCGGTAATCCGTATTTGGA (site CTACTTACTTC) | 1.32 |
| GTAGGTACATGGACCGGTTTTCCCGGTAATCCGTATTTGAC (site GTAGGTACTTT) | 0 |
| CATTCGGCATGGACCGGTTTTCCCGGTAATCCGTATTTGCA (site CATTCGGCTTG) | 1.15 |
| GGGGTACCATGGACCGGTTTTCCCGGTAATCCGTATTTGCA (site GGGGAACCTTG) | 0 |
| CTATGATCATGGACCGGTTTTCCCGGTAATCCGTATTTGCA (site CTATGATCTTG) | 2.62 |
| GGTCGAACATGGACCGGTTTTCCCGGTAATCCGTATTTGTA (site GGTCGAACTTA) | 0.761 |
| GCGTCGTCATGGACCGGTTTTCCCGGTAATCCGTATTTGTT (site GCGTCGTCTAA) | 0.947 |
| CCTAAAGCATGGACCGGTTTTCCCGGTAATCCGTATTTGAC (site CCTAAAGCTAT) | 0 |
| TCTACTGCATGGACCGGTTTTCCCGGTAATCCGTATTTGCC (site CCTACTGCTGG) | 0 |
| TCATACTCATGGACCGGTTTTCCCGGTAATCCGTATTTGTA (site TCATACTCTTG) | 0 |
| AGCTATTCATGGACCGGTTTTCCCGGTAATCCGTATTTGGC (site AGCTATTCTGC) | 0.69 |
| CTGCAACCATGGACCGGTTTTCCCGGTAATCCGTATTTGCT (site CTGCCACCTAG) | 0.0268 |
| AGCCTTACATGGACCGGTTTTCCCGGTAATCCGTATTTGAC (site AGCCTTCCTGT) | 0 |
| TCTACGTCATGGACCGGTTTTCCCGGTAATCCGTATTTGTC (site TCTACGTCTGA) | 0 |
| TGTTCCCCATGGACCGGTTTTCCCGGTAATCCGTATTTGAA (site TGTTCCCCTTG) | 0 |
| GGTACGTCATGGACCGGTTTTCCCGGTAATCCGTATTTGTT (site GGTACGCCTAA) | 0.0208 |
| AGGAAGACATGGACCGGTTTTCCCGGTAATCCGTATTTGCA (site CGGAAGCCTTG) | 0 |

| Sequence | recombinant UMI read abundance (log10) |
| --- | --- |
| GTTCTTCCATGGACCGGTTTTCCCGGTAATCCGTATTTGGT (site GTTCTTCCTAC) | 0.00538 |
| ATCTAGACATGGACCGGTTTTCCCGGTAATCCGTATTTGAC (site ATCTAAACTGT) | 2.21 |
| CAGAATACATGGACCGGTTTTCCCGGTAATCCGTATTTGCA (site GAGAATACTTG) | 0 |
| ACTCGAACATGGACCGGTTTTCCCGGTAATCCGTATTTGAG (site ACTGGAACTCT) | 0.00958 |
| GAACTCACATGGACCGGTTTTCCCGGTAATCCGTATTTGAT (site GAGCTCACTAT) | 0 |
| CCGTCAGCATGGACCGGTTTTCCCGGTAATCCGTATTTGTG (site CCGTCAGCTCA) | 0.00531 |
| ATGTAGACATGGACCGGTTTTCCCGGTAATCCGTATTTGGC (site ATGTAGACTGC) | 2.91 |
| CTATGCTCATGGACCGGTTTTCCCGGTAATCCGTATTTGAA (site CAATGCTCTTT) | 0.941 |
| ACCGGTCCATGGACCGGTTTTCCCGGTAATCCGTATTTGCA (site ACCGGTCCTTG) | 0 |
| CTAGAATCATGGACCGGTTTTCCCGGTAATCCGTATTTGAC (site CTAGCATCTGT) | 0 |
| CTCACGCCATGGACCGGTTTTCCCGGTAATCCGTATTTGTG (site CTCACGCCTCA) | 0 |
| TACCCTTCATGGACCGGTTTTCCCGGTAATCCGTATTTGGT (site TATCCTTCTAC) | 0.00909 |
| GCTTGCCCATGGACCGGTTTTCCCGGTAATCCGTATTTGAC (site GCTTGCCCTGT) | 0 |
| AAATAACCATGGACCGGTTTTCCCGGTAATCCGTATTTGAA (site AAATAACCTTT) | 0 |
| GTTCGGGCATGGACCGGTTTTCCCGGTAATCCGTATTTGCA (site GTTCGAGCTTG) | 1.27 |
| GGTCCAACATGGACCGGTTTTCCCGGTAATCCGTATTTGTC (site GGTCCAACTTA) | 0.035 |
| CAGTCGACATGGACCGGTTTTCCCGGTAATCCGTATTTGGG (site AAGTCGACTCC) | 0.0145 |
| AGACGAACATGGACCGGTTTTCCCGGTAATCCGTATTTGTC (site AAACGAACTGA) | 0 |
| TCCGGGCCATGGACCGGTTTTCCCGGTAATCCGTATTTGAC (site TCCGGGCCTGT) | 0 |
| ACGTTGCCATGGACCGGTTTTCCCGGTAATCCGTATTTGTT (site ACGTTGCCTAA) | 0.363 |
| TAAATTTCATGGACCGGTTTTCCCGGTAATCCGTATTTGCC (site TAAATTTCTGG) | 0 |
| AGTTAGACATGGACCGGTTTTCCCGGTAATCCGTATTTGAG (site TGTTAGACTCT) | 0.674 |
| AAGAACACATGGACCGGTTTTCCCGGTAATCCGTATTTGCA (site AGGAAGACTTG) | 0 |
| AGTCGAGCATGGACCGGTTTTCCCGGTAATCCGTATTTGAG (site AGTCGAGCTCT) | 1.6 |

| Sequence | recombinant UMI read abundance (log10) |
| --- | --- |
| CCGTTCGCATGGACCGGTTTTCCCGGTAATCCGTATTTGTA (site CCGTTCGCTTA) | 0.827 |
| CCGTTAGCATGGACCGGTTTTCCCGGTAATCCGTATTTGTG (site CCGTTACCTCA) | 0 |
| TAGGAATCATGGACCGGTTTTCCCGGTAATCCGTATTTGCA (site TAGGAATCTAG) | 1.62 |
| CTAGTTGCATGGACCGGTTTTCCCGGTAATCCGTATTTGAC (site CTAGTTGCTGT) | 2.24 |
| GGGAAGCCATGGACCGGTTTTCCCGGTAATCCGTATTTGGG (site GAGAAGCCTCC) | 0.00654 |
| CCCCACACATGGACCGGTTTTCCCGGTAATCCGTATTTGTG (site CCCCACACTGA) | 0 |
| CGAGGACCATGGACCGGTTTTCCCGGTAATCCGTATTTGGG (site GGAGGACCTCC) | 0.0223 |
| GTTAAATCATGGACCGGTTTTCCCGGTAATCCGTATTTGAA (site GTTAAATCTTT) | 1.62 |
| CGCAATCCATGGACCGGTTTTCCCGGTAATCCGTATTTGAA (site AGCAATCCTTT) | 0.0753 |
| AGCACTACATGGACCGGTTTTCCCGGTAATCCGTATTTGAC (site AGCACTACTGT) | 1.85 |
| ACAATATCATGGACCGGTTTTCCCGGTAATCCGTATTTGCA (site ACAGTATCTTG) | 2.35 |
| ACCTAGACATGGACCGGTTTTCCCGGTAATCCGTATTTGGT (site ACCTAGACTCC) | 0.0175 |
| CGTTCGGCATGGACCGGTTTTCCCGGTAATCCGTATTTGCT (site CGTTTGGCTAG) | 0 |
| CAATGGCCATGGACCGGTTTTCCCGGTAATCCGTATTTGCA (site TAATGGCCTTG) | 0.198 |
| GTGCAGGCATGGACCGGTTTTCCCGGTAATCCGTATTTGTG (site GTGAAGGCTCA) | 1.5 |
| CCCTAGCCATGGACCGGTTTTCCCGGTAATCCGTATTTGTC (site CCCTAGCCTGC) | 0 |
| CGATCATCATGGACCGGTTTTCCCGGTAATCCGTATTTGCA (site CGATCATCTTG) | 2.31 |
| CCGACATCATGGACCGGTTTTCCCGGTAATCCGTATTTGCT (site CGGACATCTAG) | 0 |
| CGAGGACCATGGACCGGTTTTCCCGGTAATCCGTATTTGGG (site CGAGGACCTCG) | 0 |
| GTAGTCACATGGACCGGTTTTCCCGGTAATCCGTATTTGCG (site GTAGTCGCTCG) | 1.67 |
| TACGATCCATGGACCGGTTTTCCCGGTAATCCGTATTTGCT (site TACGATCCTAG) | 1.96 |
| GGGGCACCATGGACCGGTTTTCCCGGTAATCCGTATTTGCC (site GGGGCACCTGG) | 0 |
| CATCCGGCATGGACCGGTTTTCCCGGTAATCCGTATTTGTC (site CATCCGGCTGA) | 0.293 |
| ACCCCTACATGGACCGGTTTTCCCGGTAATCCGTATTTGAA (site ACCCCTACTTT) | 1.06 |
